We go through two compounds from the NIST ThermoML archive (doi:10.1016/j.fluid.2010.04.016).

Numbers after ± are expanded uncertainties.

For this data set the following is noted: Crystal; visual observation.

Turning to `CCCCCCCCCCO` [decan-1-ol], the Normal melting temperature turned out to be 7.04 ± 0.16 °C.
In the case of `CCCCCCCCO` [octan-1-ol], the Normal melting temperature was -15.4 ± 0.16 °C.
